Measured values from ChEMBL document CHEMBL4507263, “Data for DCP probe BAY-474” (2021).

Columns and labels:
[1] = target: Serine/threonine-protein kinase 24 (Homo sapiens) (UniProt Q9Y6E0); details: Compound concentration 1000.0 nM
[2] = target: Ephrin type-A receptor 8 (Homo sapiens) (UniProt P29322); details: Compound concentration 1000.0 nM
[3] = target: Testis-specific serine/threonine-protein kinase 1 (Homo sapiens) (UniProt Q9BXA7); details: Compound concentration 1000.0 nM
[4] = target: 5-hydroxytryptamine receptor 1D (Homo sapiens) (UniProt P28221); details: Compound concentration 10.0 uM
[5] = target: Serine/threonine-protein kinase tousled-like 1 (Homo sapiens) (UniProt Q9UKI8); details: Compound concentration 1000.0 nM
[6] = target: D(1B) dopamine receptor (Homo sapiens, UniProt P21918); assay: GPCRScan assay: inhibition of D5; design: radioligand conc. used [nm] 2.0 – 3.0, parental cells HEKT
[7] = target: Ribosomal protein S6 kinase alpha-3 (Homo sapiens, UniProt P51812); assay: Rsk2 (h) Millipore kinase activity assay
[8] = target: Proto-oncogene tyrosine-protein kinase Src (Homo sapiens) (UniProt P12931); assay: cSRC (h) Millipore kinase activity assay; details: Compound concentration 1.0 uM
[9] = target: Protein kinase C theta type (Homo sapiens) (UniProt Q04759); assay: PKCtheta (h) Millipore kinase activity assay; details: Compound concentration 1.0 uM
Chain of Protein kinase C theta type (Homo sapiens) (Q04759 whole entry, looked up): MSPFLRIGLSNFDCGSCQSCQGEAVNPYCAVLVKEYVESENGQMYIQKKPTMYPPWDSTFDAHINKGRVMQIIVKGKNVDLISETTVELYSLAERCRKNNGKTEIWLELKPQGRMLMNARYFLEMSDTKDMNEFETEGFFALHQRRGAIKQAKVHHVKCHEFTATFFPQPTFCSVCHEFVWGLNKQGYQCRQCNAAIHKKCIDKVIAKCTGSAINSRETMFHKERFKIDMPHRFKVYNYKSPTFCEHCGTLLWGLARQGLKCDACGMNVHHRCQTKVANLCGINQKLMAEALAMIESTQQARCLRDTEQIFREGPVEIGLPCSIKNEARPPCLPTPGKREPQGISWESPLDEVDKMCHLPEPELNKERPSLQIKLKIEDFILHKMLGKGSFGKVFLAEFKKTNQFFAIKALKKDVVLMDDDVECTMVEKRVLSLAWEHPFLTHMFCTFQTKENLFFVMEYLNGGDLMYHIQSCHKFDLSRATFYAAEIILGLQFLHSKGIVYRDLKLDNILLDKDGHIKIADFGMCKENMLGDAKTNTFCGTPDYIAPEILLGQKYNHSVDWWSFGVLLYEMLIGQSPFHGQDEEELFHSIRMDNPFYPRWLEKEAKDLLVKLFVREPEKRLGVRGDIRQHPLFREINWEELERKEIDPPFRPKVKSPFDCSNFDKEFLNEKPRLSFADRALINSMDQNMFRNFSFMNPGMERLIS

Chain of Ribosomal protein S6 kinase alpha-3 (P51812 whole entry): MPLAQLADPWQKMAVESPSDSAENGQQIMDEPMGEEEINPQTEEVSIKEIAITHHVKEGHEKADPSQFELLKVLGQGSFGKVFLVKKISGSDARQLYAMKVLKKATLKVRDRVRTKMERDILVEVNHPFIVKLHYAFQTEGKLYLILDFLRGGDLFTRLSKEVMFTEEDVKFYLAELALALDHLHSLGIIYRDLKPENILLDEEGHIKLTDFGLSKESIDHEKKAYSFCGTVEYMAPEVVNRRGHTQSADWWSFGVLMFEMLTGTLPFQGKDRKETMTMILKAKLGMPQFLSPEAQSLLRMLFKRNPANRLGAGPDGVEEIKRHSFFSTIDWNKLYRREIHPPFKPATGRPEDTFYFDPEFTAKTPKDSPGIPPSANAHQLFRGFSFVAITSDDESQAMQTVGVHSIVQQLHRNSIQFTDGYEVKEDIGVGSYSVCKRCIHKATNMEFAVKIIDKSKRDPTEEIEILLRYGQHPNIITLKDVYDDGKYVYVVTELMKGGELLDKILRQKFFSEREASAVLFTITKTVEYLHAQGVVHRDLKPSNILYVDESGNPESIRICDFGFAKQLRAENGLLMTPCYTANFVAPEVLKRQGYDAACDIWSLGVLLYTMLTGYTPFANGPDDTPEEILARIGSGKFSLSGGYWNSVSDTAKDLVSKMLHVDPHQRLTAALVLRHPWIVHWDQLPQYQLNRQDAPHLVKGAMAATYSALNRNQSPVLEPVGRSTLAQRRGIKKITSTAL
Chain of Testis-specific serine/threonine-protein kinase 1 (Homo sapiens) (Q9BXA7 whole entry): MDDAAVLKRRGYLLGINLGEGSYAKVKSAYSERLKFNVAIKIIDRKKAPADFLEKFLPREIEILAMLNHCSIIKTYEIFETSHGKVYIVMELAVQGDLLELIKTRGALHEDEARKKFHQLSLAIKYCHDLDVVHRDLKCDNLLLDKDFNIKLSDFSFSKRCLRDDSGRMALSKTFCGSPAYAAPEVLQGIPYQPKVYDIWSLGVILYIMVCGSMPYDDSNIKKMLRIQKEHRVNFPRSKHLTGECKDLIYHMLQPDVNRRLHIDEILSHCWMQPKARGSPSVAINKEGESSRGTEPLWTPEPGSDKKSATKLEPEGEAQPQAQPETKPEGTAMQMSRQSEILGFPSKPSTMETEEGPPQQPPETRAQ
Chain of D(1B) dopamine receptor (P21918 whole entry): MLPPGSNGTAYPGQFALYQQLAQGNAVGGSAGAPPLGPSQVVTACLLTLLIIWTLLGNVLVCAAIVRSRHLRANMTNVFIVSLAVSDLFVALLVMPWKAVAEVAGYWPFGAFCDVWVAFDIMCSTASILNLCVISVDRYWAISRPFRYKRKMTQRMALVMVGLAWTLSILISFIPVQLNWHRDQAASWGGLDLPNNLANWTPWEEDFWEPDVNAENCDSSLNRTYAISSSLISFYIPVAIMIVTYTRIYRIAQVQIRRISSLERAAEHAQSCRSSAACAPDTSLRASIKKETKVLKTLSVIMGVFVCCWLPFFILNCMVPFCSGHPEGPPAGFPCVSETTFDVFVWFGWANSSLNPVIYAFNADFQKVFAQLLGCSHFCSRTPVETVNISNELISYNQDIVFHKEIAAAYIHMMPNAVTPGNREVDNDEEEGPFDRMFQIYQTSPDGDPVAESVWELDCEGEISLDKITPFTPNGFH
Chain of Ephrin type-A receptor 8 (Homo sapiens) (P29322 whole entry): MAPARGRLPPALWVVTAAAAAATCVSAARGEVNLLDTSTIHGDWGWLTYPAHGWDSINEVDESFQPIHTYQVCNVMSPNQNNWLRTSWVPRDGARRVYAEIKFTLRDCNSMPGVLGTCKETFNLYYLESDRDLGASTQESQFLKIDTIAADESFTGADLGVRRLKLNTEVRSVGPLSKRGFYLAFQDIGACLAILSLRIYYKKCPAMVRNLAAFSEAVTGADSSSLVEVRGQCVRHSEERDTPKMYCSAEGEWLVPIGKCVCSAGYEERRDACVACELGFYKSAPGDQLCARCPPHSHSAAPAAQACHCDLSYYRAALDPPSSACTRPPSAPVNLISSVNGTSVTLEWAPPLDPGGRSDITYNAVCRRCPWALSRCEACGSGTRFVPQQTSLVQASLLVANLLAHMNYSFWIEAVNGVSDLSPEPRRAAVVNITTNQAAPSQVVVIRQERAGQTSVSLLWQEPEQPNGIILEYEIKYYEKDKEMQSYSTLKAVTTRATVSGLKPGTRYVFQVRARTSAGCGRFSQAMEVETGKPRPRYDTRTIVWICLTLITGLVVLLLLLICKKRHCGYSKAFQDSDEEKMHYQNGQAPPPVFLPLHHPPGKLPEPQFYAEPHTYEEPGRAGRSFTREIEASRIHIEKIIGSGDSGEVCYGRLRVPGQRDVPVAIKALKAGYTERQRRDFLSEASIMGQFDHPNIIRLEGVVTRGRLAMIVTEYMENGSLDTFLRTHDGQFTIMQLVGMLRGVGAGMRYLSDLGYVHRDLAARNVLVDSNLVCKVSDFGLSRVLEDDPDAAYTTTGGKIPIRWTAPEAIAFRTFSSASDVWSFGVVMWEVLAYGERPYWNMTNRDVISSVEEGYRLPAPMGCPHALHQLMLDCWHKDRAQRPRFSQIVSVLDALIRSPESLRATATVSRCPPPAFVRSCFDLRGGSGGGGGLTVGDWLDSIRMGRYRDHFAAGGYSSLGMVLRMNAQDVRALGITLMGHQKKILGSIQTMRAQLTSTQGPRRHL
Chain of Serine/threonine-protein kinase 24 (Homo sapiens) (Q9Y6E0 whole entry, looked up): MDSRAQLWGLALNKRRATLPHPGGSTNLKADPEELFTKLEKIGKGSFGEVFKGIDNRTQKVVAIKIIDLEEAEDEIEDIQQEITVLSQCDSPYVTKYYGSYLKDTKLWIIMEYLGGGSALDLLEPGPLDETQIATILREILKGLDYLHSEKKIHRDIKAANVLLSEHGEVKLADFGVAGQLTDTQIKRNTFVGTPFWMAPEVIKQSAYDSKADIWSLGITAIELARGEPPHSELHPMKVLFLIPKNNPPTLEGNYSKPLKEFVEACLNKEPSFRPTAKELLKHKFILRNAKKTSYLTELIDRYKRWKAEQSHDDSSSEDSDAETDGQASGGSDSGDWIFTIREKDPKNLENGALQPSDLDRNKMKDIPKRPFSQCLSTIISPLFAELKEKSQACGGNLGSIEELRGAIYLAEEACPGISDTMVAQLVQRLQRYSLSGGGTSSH
Chain of Proto-oncogene tyrosine-protein kinase Src (Homo sapiens) (P12931 2-536 limits assumed): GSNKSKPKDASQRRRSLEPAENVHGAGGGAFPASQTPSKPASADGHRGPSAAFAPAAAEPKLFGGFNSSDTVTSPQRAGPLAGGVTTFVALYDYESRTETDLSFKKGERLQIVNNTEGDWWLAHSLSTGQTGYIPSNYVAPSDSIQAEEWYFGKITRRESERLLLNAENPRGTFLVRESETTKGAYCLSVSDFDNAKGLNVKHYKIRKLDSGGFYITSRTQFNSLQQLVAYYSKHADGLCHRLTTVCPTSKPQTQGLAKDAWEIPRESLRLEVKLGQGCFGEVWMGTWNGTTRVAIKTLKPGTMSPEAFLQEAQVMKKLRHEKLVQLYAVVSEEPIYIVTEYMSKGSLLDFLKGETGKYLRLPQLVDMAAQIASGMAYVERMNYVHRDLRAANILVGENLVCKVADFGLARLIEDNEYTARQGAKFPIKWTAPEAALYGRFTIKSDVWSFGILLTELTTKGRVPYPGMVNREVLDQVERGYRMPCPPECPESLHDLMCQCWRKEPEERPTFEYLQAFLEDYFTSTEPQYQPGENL
Chain of Serine/threonine-protein kinase tousled-like 1 (Homo sapiens) (Q9UKI8 whole entry): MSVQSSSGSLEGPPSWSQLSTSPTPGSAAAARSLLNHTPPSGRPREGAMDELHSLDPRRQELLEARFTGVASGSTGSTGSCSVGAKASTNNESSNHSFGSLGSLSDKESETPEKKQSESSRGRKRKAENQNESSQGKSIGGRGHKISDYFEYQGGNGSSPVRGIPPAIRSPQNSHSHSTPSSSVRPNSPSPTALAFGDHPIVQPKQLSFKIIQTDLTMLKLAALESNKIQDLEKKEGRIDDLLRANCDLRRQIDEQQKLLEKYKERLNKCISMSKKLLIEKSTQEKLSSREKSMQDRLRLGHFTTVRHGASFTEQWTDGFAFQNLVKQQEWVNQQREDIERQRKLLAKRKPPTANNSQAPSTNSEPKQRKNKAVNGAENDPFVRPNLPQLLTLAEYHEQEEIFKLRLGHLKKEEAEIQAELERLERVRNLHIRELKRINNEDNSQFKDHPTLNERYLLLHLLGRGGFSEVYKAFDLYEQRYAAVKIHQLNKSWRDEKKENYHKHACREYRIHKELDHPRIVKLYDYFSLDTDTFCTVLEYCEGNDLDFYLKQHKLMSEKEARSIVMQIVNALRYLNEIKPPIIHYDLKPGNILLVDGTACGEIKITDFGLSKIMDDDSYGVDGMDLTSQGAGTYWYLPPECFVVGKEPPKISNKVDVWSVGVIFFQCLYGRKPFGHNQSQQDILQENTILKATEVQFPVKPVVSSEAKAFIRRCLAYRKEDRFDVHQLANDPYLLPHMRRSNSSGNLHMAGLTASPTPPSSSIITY

For CC1=C(C#N)[C@@H](c2ccc3[nH]nc(C)c3c2)C(C#N)=C(c2ccc(Cl)cc2)N1 [BAY-827], which residual activity [1] is on record?
Its residual activity is 100%.

And the residual activity [2]?
The residual activity was 100%.

What about the residual activity [3] of the same molecule?
The residual activity was 100%.

And the inhibition [4]?
Its inhibition is 4.2%.

And the residual activity [5]?
The residual activity was 100%.

What about the Ki [6] of the same molecule?
Its Ki is 10 µM.

Which results are given for CC1=C(C#N)C(c2ccc3[nH]nc(C)c3c2)C(C#N)=C(C)N1 [BAY-474]?
IC50 [7]: 0.9 µM; inhibition ([7]; Compound concentration 1.0 uM): 46%; inhibition [8]: 8%; inhibition [9]: 15%
